Measured values taken from US20030228256A1, “Methods of achieving transplantation tolerance through radioablation of hemolymphopoietic cell populations” (priority 2002, published 2003).
Where two headings read alike, the source gives them in different places.

Legend:
[1] = system: donor-specific (Balb/c) and third party (C3H) skin grafts
Method: Full-thickness skin donor (Balb/c) and third party (C3H/HeJ) grafts were transplanted onto the lateral thoracic area of the recipients either the day following BMC-Tx, or 4 weeks following the last administration of MR-1 mAb, using techniques described previously. Briefly, square, full-thickness skin grafts (1 cm^2) were prepared from the tail skin of donors. Graft beds were prepared on the right (donor-specific) and left (third party) lateral thoracic wall of recipient mice. Grafts were fixed to the beds with 4 sutures of 5.0 silk at the corners of the graft and covered with a petroleum jelly-coated gauze and a plaster cast. The grafts were first inspected on the eighth-day following grafting, and every third day thereafter. Graft rejection was considered complete when no viable graft tissue was detected by visual inspection. Recipient mice were considered to be tolerant when donor-specific skin grafts survived in perfect condition for <150 days.
Grafts were prepared 30 days following the last administration of anti-CD154 mAb in the treated animals. Two different donor strain combinations, BALB/c (H-2^d), and C3H/J (H-2^k) were used. Each recipient received skin grafts from both strains: donor-type, BALB/c (H-2^d), as well as third-party, C3H/J (H-2^k). […] Grafts were followed for a minimum of 128 days and were considered rejected when viable tissue was no longer detected at the transplant site.

[2] = system: donor-derived cells (BALB/c BMC) in recipients; test: Hemolymphopoietic chimerism: percentage of donor-derived cells in recipient PBL by flow cytometry after allogeneic BMC-Tx; type: in vivo, C57BL/6 mice
Method: (§1) Bone marrow-derived Cell Transplantation. Balb/c mice, 8-9 weeks old, used as donors, were sacrificed on the day of the transplant. Bone marrow cells (BMC) were prepared according to a previously published regimen. Briefly, after removing femura and tibiae, and cleaning them from muscle tissue and cartilage, BMC were flushed with sterile RPMI-1640 (Mediatech, Inc, Herndon, Va.) supplemented with 0.8 mg/ml Gentamycin (Gibco, Gaithersburg, Md.), using 23G needle. BMC were filtered through a sterile nylon mesh and counted. Fully MCH-mismatched C57BL/6 recipients, 9-10 weeks of age, were injected intravenously with either 20×10^6 or 100×10^6 unmanipulated BMCs resuspended in 0.5 and 1.0 ml of HBSS Hank's Balanced Saline Solution) (Mediatech) respectively, on either day 7 or 14. Tolerance induction protocol consisted of either 150 or 500 μCi of ^153Sm-EDTMP (Berlex Laboratories Wayne, N.J.), I.V., on day—7, and 0.5 mg hamster anti-murine CD154 mAb (MR-1), purchased from Taconic (Germantown, N.Y.) administered intraperitoneally (I.P.) on days—1,0,7,14, 21 and 28.
Immunohemotyping of chimeras. Engraftment of donor-derived BMCs was ascertained by flow cytometric analysis (FCM) of recipient peripheral blood mononuclear cells (PBMCs), splenocytes, thymocytes and bone marrow cells after staining with FITC-conjugated anti-mouse H-2K^b or H-2K^d and Cy-Chrome-conjugated CD3 monoclonal antibodies (mAbs) purchased from PharMingen (San Diego, Calif.) at multiple time points during the experiment as well as at sacrifice. Cells were also assessed for non-specific staining using an Ig isotype control (FITC-conjugated mouse IgG2a and Cy-Chrome-conjugated rat IgG2b), and the percentage of cells stained with this Ab was subtracted from the values obtained from staining with the specific Ab to determine the relative number of positive cells. Reconstitution of various cell lineages was assessed using FITC-conjugated anti-mouse H-2K^b or H-2K^d and PE-conjugated anti-mouse CD19/CD22 in the B cell, PE-conjugated anti-mouse Ly-6G in the granulocyte, and PE-conjugated anti-mouse Mac-3 in the macrophage compartments. Recipient animals were first tested 1 week after BMC-Tx, every 2 weeks up to 6 weeks, and every 4 weeks thereafter. Purified anti-mouse CD16/CD32 (FcγIII/II) was used to block non-specific binding to the Fc receptors. FCM analyses were preformed using CellQuest software on a FACScan cytometer purchased from Becton Dickinson & Co. (Mountain View, Calif.).
Typing of PBL obtained from the recipient animals starting at 2 weeks following the reconstitution with donor-derived BM allogeneic cells, every two weeks up to 6 weeks post-reconstitution, and every 4 weeks afterwards was performed using anti Class I H-2^b-FITC and H-2^d-FITC. Analysis was performed on the lymphoid gate, and the values were normalized to 100%.

[3] = system: white blood cell counts (WBC), hemolymphopoietic elements; test: Blood counts (WBC, RBC, Hb, PLT) after single IV dose of 153Sm-EDTMP; type: in vivo, C57BL/6 mice; parameters: time at which myelodepression occurred: unit not given here
Method: as §1
Recipient animals (C57BL/6, H-2^b) were treated with a single IV dose of ^153Sm-EDTMP, 150 μCi or 500 μCi, prior to administration of 20×10^6 or 100×10^6 allogenic donor bone marrow cells (BMC) (BALB/c, H-2^d), also administered as a single IV dose. BMC transplantation (BMC-Tx) was performed on day 7 or 14 following the administration of ^153Sm in the presence of transient T lymphocyte co-stimulatory blockade by MR-1 (hamster anti-murine CD154 mAb) on days—1, 0, 7, 14, 21 and 28, 0.5 mg IP. […] Similar data were obtained in animals treated with ^153Sm-EDTMP and not transplanted with allogeneic BMC (not shown). […] No dramatic alterations of RBC, PLT or Hb counts were evident.

Structure (SMILES): O=P([O-])(O)CN(CCN(CP(=O)([O-])O)CP(=O)(O)O)CP(=O)([O-])O.[153Sm+3] [^153Sm-EDTMP]
- third party (C3H/J) skin graft outcome ([1]; 20×10^6 BMC, 153Sm-EDTMP and anti-CD154 mAb): rejected within the same time frame as were donor-specific grafts placed on naïve recipients
- tolerance to donor-specific skin grafts ([1]; 20×10^6 BMC, 153Sm-EDTMP and anti-CD154 mAb, FIG. 9): tolerance to donor-specific skin grafts is obtained
- third party (C3H/J) skin graft outcome ([1]; 100×10^6 BMC, 153Sm-EDTMP and anti-CD154 mAb): rejected within the same time frame as were donor-specific grafts placed on naïve recipients
- enhancing effect of 153Sm administration on graft survival ([1]; 100×10^6 BMC, anti-CD154 mAb, FIG. 10): lost
- time donor-derived skin grafts were kept ([1]; a large percent of animals, followed up to 31 weeks post bone marrow transplantation, with anti-CD154 mAb): > 150 days
- CD3+ T lymphocytes of donor origin (mixed chimerism of lymphoid lineage) ([2]; 20×10^6 BMC, anti-CD154 mAb, 153Sm-EDTMP 150 or 500 μCi): CD3+ T lymphocytes of donor origin were also present
- chimerism levels with versus without 153Sm administration ([2]; 100×10^6 BMC, anti-CD154 mAb): reproducibly higher
- CD3+ T lymphocytes of donor origin (mixed chimerism of lymphoid lineage) ([2]; 100×10^6 BMC, anti-CD154 mAb, 153Sm-EDTMP 150 or 500 μCi): CD3+ T lymphocytes of donor origin were also present
- BM engraftment ([2]; 100×10^6 BMC, anti-CD154 mAb, 153Sm-EDTMP 150 or 500 μCi, BMC on day 7 or 14, FIG. 2): BM engraftment in all recipient animals analyzed
- chimerism in recipients of allogeneic BMC ([2]; absence of co-stimulatory blockade, 20×10^6 or 100×10^6 BMC, FIGS. 4-5): transient chimerism
- multilineage chimerism (B cells, NK, granulocytes) ([2]; combination of BMC-Tx, 153Sm-EDTMP and anti-CD154 mAb, FIGS. 7 and 8): long-term, stable multilineage chimerism
- chimerism in recipients of allogeneic BMC ([2]; in the presence of costimulatory blockade (anti-CD154 mAb)): long-lasting hemolymphopoietic chimerism
- chimerism across a full allogeneic barrier ([2]; single administration prior to infusion of allogeneic bone marrow-derived cells): high levels of stable long-term chimerism
- effectiveness of lower dose 150 μCi versus higher dose 500 μCi ([2]; with BMC-Tx and MR-1 co-stimulatory blockade): as effective as the higher dose
- influence of 153Sm dose (150 vs 500 μCi) and timing of BMC-Tx on chimerism ([2]; with costimulatory blockade): do not grossly influence the results
- reversibility of myelodepression of the WBC compartment ([3]; in the presence or absence of allogeneic BMC-Tx): spontaneously reversible
- effect on red blood cell (RBC), hemoglobin (Hb) and platelet (PLT) counts ([3]; single IV dose 150 or 500 μCi): does not have significant effect
- time at which myelodepression occurred ([3]; single IV dose 150 or 500 μCi): one
- time by which myelodepression spontaneously resolved ([3]; single IV dose 150 or 500 μCi): 4-6 weeks post-administration
- myelodepression (decreased white blood cell counts) ([3]; single IV dose 150 or 500 μCi, FIG. 1): transient myelodepression
